From US8652770B2, “Storage of platelets under pressure with xenon containing atmosphere” (Rich Products Corporation, priority 2008, dated 2014)

What was measured:
Type in all cases: cell-based, rabbit
platelets [1] = test: Platelet cell counting (hemocytometer) after storage of PRP; parameters: # cells: unit not given here; details: 4° C.; for Cell number: Input = 100%; for # cells: Table 3, 4 bars total pressure of gas, 7 days
Description: Blood was obtained by puncturing a rabbit marginal ear vein and collecting blood in a sterile vacuum tube. About 10-15 ml of blood was used, although the amount taken from any particular individual can be varied by the skilled artisan according to routine considerations, such as the size of the individual and the intended use of the platelets prepared according to the method of the invention.
The blood was centrifuged at a speed of approximately 200 g for 10 minutes to separate red blood cells (RBC) and platelet rich plasma (PRP). The PRP was transferred to another tube.
(§1) Two microliters of PRP were used to count cells essentially as described in Born et al. (J. Physiol. (1963) Vol. 168, pp 178-195). An additional two microliters were used for antibody staining and flow cytometry analysis performed essentially as reported in Shattil et al. (1987) Detection, Blood Vol. 70 p 307-315.
(§2) For determining platelet aggregation, approximately 250 microliters of PRP were used for a pre-treatment aggregation test. The remaining PRP was transferred to test tubes in which the atmosphere was adjusted to include xenon under two distinct pressures (4 bars of total pressure created by introducing 99.999% xenon into the test tube in a first set of experiments, and 5.3 bars of total pressure, also created by introducing 99.999% xenon into the test tube, in a second set of experiments). For adjusting the atmosphere in the containers, the test tubes were covered with rubberized caps that were punctured for introducing xenon. The test tubes were put into an experimental chamber and the atmosphere in the test tubes was adjusted by filling the test tubes with xenon using a 0.2-micrometer aseptic filter. Pressure changes in the tubes were measured using a manometer. Negative controls (no adjustment of the composition of the atmosphere in which the platelets were held) were also performed.
(§3) The chambers were shaken at 150-200 rpm on a Biosan OS-10 orbital shaker for one hour at ambient temperature (approximately 23° C.) to dissolve xenon in the PRP. The experimental chambers were then stored at approximately 4° C. with shaking at 50-70 rpm using a Biosan OS-10 orbital shaker and removed at one and two week time points for experiments under 4 bars of xenon pressure. The experiment using the initial xenon pressure of 5.3 bars were stored at 4° C. for 1 week.
After storage, the chambers were removed from refrigeration and kept at ambient temperature (approximately 23° C.) for 30 minutes with shaking at approximately 150-200 rpm. The atmosphere was then slowly allowed to equilibrate with ambient pressure of a period of 30 minutes by allowing the atmosphere in the chamber and in the test tubes to equilibrate with the atmosphere outside the test tubes through a specially adapted valve. […]
Subsequent to allowing the atmosphere in the experimental and control tubes to equilibrate with ambient pressure and temperature, the PRP samples were analyzed using conventional hemocytometer based cell counting, induced aggregation analysis using ADP and epinephrine, whereby aggregation was determined using manual counting and aggregometer analysis according to standard techniques, and by cd62p/cd61 immunostaining and flow cytometry analysis performed on an Epic XL, Beckman-Coulter cytometry machine. […]

platelets [2] = test: ADP/epinephrine induced platelet aggregation after storage of PRP; details: for Aggregation (ADP/epinephrine): Xe 4 bars, Input = 100%; for Aggregation (ADP/epinephrine), %: Table 2, 7 days Xe, 4 bars
From the text: as §2, §3
After storage, the chambers were removed from refrigeration and kept at ambient temperature (approximately 23° C.) for 30 minutes with shaking at approximately 150-200 rpm. The atmosphere was then slowly allowed to equilibrate with ambient pressure of a period of 30 minutes by allowing the atmosphere in the chamber and in the test tubes to equilibrate with the atmosphere outside the test tubes through a specially adapted valve. Once the atmosphere in the chambers and test tubes equilibrated with ambient pressure, a vacuum was applied for approximately three minutes at approximately 380 mmHg to remove residual xenon from the PRP.
(§4) Analysis of the platelet function after storage included platelet counting at a hemocytometer, platelet aggregation tests using ADP and epinephrine as aggregation inducing agents, with manual counting and analysis using an aggregometer, and CD62p/CD61 antibody staining, with subsequent flow cytometry analysis on Epic XL, Beckman-Coulter generally as described in Shattil et al. (1987) Blood Vol. 70 p […] of platelets were stained using anti-CD62p and anti-CD61 antibodies obtained from commercial vendors.
(§5) Subsequent to allowing the atmosphere in the experimental and control tubes to equilibrate with ambient pressure and temperature, the PRP samples were analyzed using conventional hemocytometer based cell counting, induced aggregation analysis using ADP and epinephrine, whereby aggregation was determined using manual counting and aggregometer analysis according to standard techniques, and by cd62p/cd61 immunostaining and flow cytometry analysis performed on an Epic XL, Beckman-Coulter cytometry machine. The cdc62p/cd61 analysis was performed using commercially available antibodies and generally according to the known method reported in Shattil et al. (1987) Detection of activated platelets in whole blood using activation-dependent monoclonal antibodies and flow cytometry, Blood Vol. 70 p 307-315.

Cd41/62p = Cd41/62p immunostaining and flow cytometry (platelet activation markers); details: for Cd41/62p: % of cells with activation markers, Xe 4 bars, 4° C., Input 13%
From the text: We analyzed platelet activation using a standard methodology comprising immunostaining platelets for CD62 and CD41 and subsequent analysis by flow cytometry. […] Thus, it will be recognized by those skilled in the art that the invention provides stored platelet preparations that are useful for treating individuals in need of platelet transfusion therapy. It is therefore considered that practicing the method of the invention transforms a platelet concentrate that would not ordinarily tolerate refrigeration into a platelet concentrate that can withstand refrigeration such that the platelet concentrate remains useful for transfusions after being stored at refrigerated temperature for at least two weeks. It will also be recognized that the platelet concentrate has other potential uses, such as in high-throughput assays to screen a test agent for the capability to modify platelet function.
as §1, §4, §5
In Table 1, “Input” represents pre-treatment/storage measurements. Cell number and Aggregation induced by ADP/epinephrine before performing the method are used to set 100% values. […] NG=no gas. […]

platelets [3] = test: ADP-induced platelet aggregation, xenon compared to argon, vacuum step omitted; details: Table 3, 4 bars total pressure of gas, 4° C., 7 days, no vacuum step
Description: In view of the result obtained in Table 2, we performed another set of experiments to compare the properties of xenon to argon in ADP-induced platelet aggregation assays, the results of which are depicted in Table 3.
The experiments summarized in Table 3 were performed using an atmosphere of 4 bars total pressure created by introducing xenon or argon into the containers using essentially the same techniques as for the experiments described for Tables 1 and 2, except the PRP samples were cooled to 4° C. and held at approximately in an atmosphere of 3.8 bar xenon for 7 days. In this experiment, the initial partial pressure of xenon was 4 bars, but the pressure dropped to 3.8 bars during storage, presumably due to dissolution of xenon into the platelets from the atmosphere in the container.

Structure (SMILES) | Cell number (platelets [1]; PRP stored 7 days, Xe 4 bars) [%^] | Cell number (platelets [1]; PRP stored 7 days, Xe 5.3 bars) [%] | Cell number (platelets [1]; PRP stored 14 days, Xe 4 bars) [%] | # cells (platelets [1]) | improvement of ADP/Epinephrine induced aggregation by evacuating residual xenon with vacuum (platelets [2]; 7 days Xe 4 bars 4° C., with vs without vacuum) [%] | Aggregation (ADP/epinephrine) (platelets [2]; PRP stored 7 days, 4° C.) [%] | Aggregation (ADP/epinephrine) (platelets [2]; PRP stored 14 days, 4° C.) [%^] | Aggregation (ADP/epinephrine), % (platelets [2]; 4° C. with three minutes vacuum application) [%] | Aggregation (ADP/epinephrine), % (platelets [2]; 4° C., no vacuum) [%] | induced aggregation higher than no gas control (platelets [2]; after 2 weeks of storage, 4 bar xenon treated sample vs NG control) | Cd41/62p (Cd41/62p; PRP stored 7 days) [%] | Cd41/62p (Cd41/62p; PRP stored 14 days) [%] | surface CD62 and CD41 over control platelet concentrates not treated with xenon (Cd41/62p; platelet concentrates treated by the method) | inhibition of spontaneous activation (Cd41/62p) relative to the NG control (Cd41/62p; xenon 4 bar atmosphere treated samples) | Aggregation % (platelets [3]) [%]
[Xe] [Xenon, xenon] | 77.5 | 12.6 | 59 | 674 *106 | 20 | 83 | 54.5 | 72 | 53 | about 20% | 39 | 33 | two-fold less | two-fold better inhibition | 87
[Ar] [Argon, argon, reference compound] |  |  |  | 594 *106 |  |  |  |  |  |  |  |  |  |  | 100
